{
  "source": "patent US9393271B2",
  "about": "“GHRH agonists for islet cell transplantation and function and the treatment of diabetes” (UNIVERSITY OF MIAMI, priority 2012, dated 2016)",
  "key": {"[1]": {"tested_on": "INS-1 cells", "experiment": "INS-1 cell viability (CellTiter 96 AQueous One Solution)", "type": "cell-based, rat", "settings": "10^-7 to 10^-9 M, 24 hrs", "description": "(§1) Rat insulinoma cells (INS-1) were cultured in RPMI Medium 1640 (PAA) containing 2 mM L-glutamine, 10% FBS, 1 mM Na-pyruvate, 50 μM 2-mercaptoethanol, and 100 U/mL penicillin/streptomycin (Gibco) at 37° C. in a 5% CO2 humidified incubator. Medium was exchanged every second day and cells were passaged once per week. INS-1 cells were treated with the GHRH agonist P-27403 at concentrations from 10^−7 to 10^−9 M for 24 hrs and was analyzed for viability and apoptosis. Viability was assessed using CellTiter 96 AQueous One Solution Cell Proliferation Assay (Promega) according to the manufacturer's instructions. Apoptosis was assayed by determination of caspase 3/7 activity using Caspase-Glo 3/7 Assay (Promega) according to manufacturer's instructions.\nINS-1 cells were grown for 72 hours before experimentation. Cells were treated with different GHRH agonist peptides (MR-356/P-20356, MR-361/P-20361, MR-367/P-20367, MR-403/P-27403, MR-409/P-27409, MR-502/P-25502) at different concentrations (10^−6-10^−10 M) or with 0.1% (vol/vol) DMSO as control for 24 h, 48 h and 72 h. Viability was assessed using CellTiter 96 AQueous One Solution Cell Proliferation Assay (Promega) according to the manufacturer's instructions. Treatment of INS-1 cells with GHRH agonist peptides for 72 h improved cell viability. Cell viability was expressed as percent of cells treated with control DMSO (FIG. 7)."}, "[2]": {"tested_on": "rat islets", "experiment": "Viability of rat islets alone or in co-culture with adrenal cells", "type": "cell-based", "settings": "rat islets alone, 10^-8 M, 24 hrs", "description": "Pancreatic islets were isolated from female Wistar rats as described in prior art, and according to guidelines established by the University Institutional Animal Care and Use Committee. Briefly, animals were anesthetized by 3% isoflurane and digestion solution (Collagenase V; Sigma-Aldrich) was injected via the pancreatic duct. Islets were isolated by discontinuous Ficoll gradient centrifugation (Sigma-Aldrich). Isolated islets were cultured in RPMI 1640 (PAA) supplemented with 10% FBS at 37° C. in a 5% CO2 atmosphere prior to further experimentation. Yield and purity of islets were determined by microscopic sizing after staining with dithizone (Sigma-Aldrich) as previously described.\nFemale Wistar rats were used as adrenal donors according to guidelines established by the University Institutional Animal Care and Use Committee. After euthanization, the adrenal glands were rapidly removed and kept in PBS at 4° C. After removal of adipose tissue, the capsule was removed. The tissue was then incubated at 37° C. in PBS containing collagenase type II (2.0 mg/ml; Sigma-Aldrich) and DNase (0.15 mg/ml; Sigma-Aldrich). After incubation for 30 min, the digestion was stopped by adding cold PBS. […]\nIsolated rat islets and co-cultured islets were treated with P-27403 at a concentration of 10^−8 M or with 0.1% DMSO as control for 24 hrs, and then analyzed for viability. […]"}, "[3]": {"tested_on": "INS-1 cells", "experiment": "INS-1 proliferation (BrdU Cell Proliferation Assay)", "type": "cell-based, rat", "description": "For determination of proliferation activity, BrdU incorporation was performed in INS-1 cells following exposure to P-27403. Proliferation was measured using BrdU Cell Proliferation Assay (Millipore) following the manufacturer's description. The maximal enhancement in proliferation rate of 16% compared to control was found at 10^−8 M concentration of P-27403 (FIG. 1C).\nINS-1 cells were grown for 72 h before experimentation. Cells were treated with GHRH agonists MR356, MR367, and MR403 at different concentrations or with 0.1% (vol/vol) DMSO as control for 24 h, 48 h and 72 h. Proliferation was measured using BrdU Cell Proliferation Assay (Millipore) following the manufacturer's description."}, "[4]": {"tested_on": "INS-1 cells", "experiment": "INS-1 apoptosis, caspase 3/7 activity (Caspase-Glo 3/7)", "type": "cell-based, rat", "settings": "24 hrs", "description": "as §1\nINS-1 cells were grown for 72 h before experimentation. Cells were treated with various GHRH agonist peptides at different concentrations or with 0.1% (vol/vol) DMSO as control for 24 h, 48 h and 72 h. Apoptosis was assayed by determination of caspase 3/7 activity using Caspase-Glo 3/7 Assay (Promega) according to the manufacturer's instructions."}, "[5]": {"tested_on": "GH level", "experiment": "In vivo endocrine activity (GH release), intravenous administration", "settings": "rat", "description": "In vivo tests on endocrine activity of new GHRH agonists (Intravenous administration). For in vivo tests based on intravenous administration, adult male Sprague-Dawley rats were anesthetized with pentobarbital (6 mg/100/g, b.w.), and GHRH agonists were injected 20 minutes after the injection of pentobarbital. Blood samples were taken from the jugular vein (pretreated level), immediately after hGHRH(1-29)NH2 injection (as a control) or after hGHRH analogs injection. Blood samples were taken from the jugular vein 5, 15 and 30 minutes after the injection. The blood samples were centrifuged, plasma was removed and the GH level was measured by ELISA."}, "[6]": {"biological_target": "T1, GHRH receptor (human pituitary membrane homogenates) (Homo sapiens, UniProt Q02643)", "T1 sequence (Q02643 23-423)": "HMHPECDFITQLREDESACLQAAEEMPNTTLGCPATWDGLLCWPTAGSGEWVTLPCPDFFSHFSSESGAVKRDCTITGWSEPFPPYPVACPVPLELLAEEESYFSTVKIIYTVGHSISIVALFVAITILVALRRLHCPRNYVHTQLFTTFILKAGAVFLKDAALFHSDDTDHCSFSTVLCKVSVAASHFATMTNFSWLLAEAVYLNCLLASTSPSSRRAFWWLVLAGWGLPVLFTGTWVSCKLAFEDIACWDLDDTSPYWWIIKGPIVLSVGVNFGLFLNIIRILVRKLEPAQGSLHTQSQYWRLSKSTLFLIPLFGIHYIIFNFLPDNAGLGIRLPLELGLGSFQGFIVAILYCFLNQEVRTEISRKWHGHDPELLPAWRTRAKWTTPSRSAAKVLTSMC", "experiment": "GHRH receptor binding, ligand competition with 125I-labeled JV-1-42 (Table 7)", "set-up": "Normal human pituitaries were purchased from the National Hormone and Peptide Program; tissue National Hormone and Peptide Program (A. F. Parlow, Harbor-UCLA Medical Center, Torrance, Calif.); host or cells: normal human pituitary, membrane fraction / homogenate", "settings": "JI-38 = 1"}, "[7]": {"tested_on": "GH level", "experiment": "In vivo endocrine activity (GH release), subcutaneous administration", "settings": "rat, s.c.", "description": "Subcutaneous Administration. Adult male rats were used and anesthetized with pentobarbital (6 mg/100 g, b.w.), by i.p. injection. […] Blood samples were taken from the jugular vein 5, 15 and/or 30 minutes after the injection. The blood samples were centrifuged, plasma was removed and the GH level was measured by ELISA. The results are summarized in terms of potency in Table 9."}},
  "note": "Non-standard residues stand in square brackets, D forms with d. Residues, ends and D or L forms follow the SMILES beside them. NMeY = CN[C@@H](Cc1ccc(O)cc1)C(=O)O; Nle = CCCC[C@H](N)C(=O)O; Orn = NCCC[C@H](N)C(=O)O; Abu = CC[C@H](N)C(=O)O",
  "data": [
    {"smiles": "CCCC[C@H](NC(=O)[C@@H](NC(=O)[C@H](CC(=O)O)NC(=O)[C@H](CCC(N)=O)NC(=O)[C@H](CC(C)C)NC(=O)[C@H](CC(C)C)NC(=O)[C@H](CCCN)NC(=O)[C@H](CCCNC(=N)N)NC(=O)[C@H](C)NC(=O)[C@H](CO)NC(=O)[C@H](CC(C)C)NC(=O)[C@H](CCC(N)=O)NC(=O)[C@H](CC)NC(=O)[C@H](CC(C)C)NC(=O)[C@@H](NC(=O)[C@H](CCCN)NC(=O)[C@H](CCCNC(=N)N)NC(=O)[C@H](Cc1ccc(O)cc1)NC(=O)[C@H](CO)NC(=O)[C@H](CCC(N)=O)NC(=O)[C@@H](NC(=O)[C@H](Cc1ccccc1)NC(=O)[C@@H](NC(=O)[C@H](C)NC(=O)[C@H](CC(=O)O)NC(=O)[C@@H](C)NC(=O)[C@H](Cc1ccc(O)cc1)NC)[C@@H](C)CC)[C@@H](C)O)C(C)C)[C@@H](C)CC)C(=O)N[C@@H](CC(=O)O)C(=O)N[C@@H](CCCNC(=N)N)C(=O)NC", "note": "[Peptide P-27403, [N—Me-Tyr^1, D-Ala^2, Gln^8, Orn^12, Abu^15, Orn^21, Nle^27, Asp^28]hGHRH(1-29)NH—CH3] (H-[NMeY][dA]DAIFTQSYR[Orn]VL[Abu]QLSAR[Orn]LLQDI[Nle]DR-NHMe)", "values": [
      {"measurement": "Viability compared to control", "setting": "[1]", "value": "increased viability at all concentrations used"},
      {"measurement": "Islet viability", "setting": "[2]", "value": "increase in viability"},
      {"measurement": "Islet viability", "setting": "[2]; listed as MR403", "value": "increase of viability"},
      {"measurement": "Enhancement in proliferation rate compared to control", "setting": "[3]; 10^-8 M, 24 hrs", "value": 16, "unit": "%"},
      {"measurement": "Cell proliferation compared to control", "setting": "[3]; different concentrations, 24 h, 48 h and 72 h", "value": "significantly induced cell proliferation"},
      {"measurement": "Apoptosis, caspase 3/7 activity", "setting": "[4]; 10^-7 to 10^-9 M", "value": "overall reduction of apoptosis"},
      {"measurement": "Reduction of apoptosis (caspases 3/7 activity)", "setting": "[4]; 10^-8 M", "value": 14, "unit": "%"},
      {"measurement": "Reduction of apoptosis (caspases 3/7 activity)", "setting": "[4]; 10^-9 M", "value": 18, "unit": "%"},
      {"measurement": "Stimulation of growth hormone levels after i.v. administration (comparison in words)", "setting": "[5]", "value": "most potent"},
      {"measurement": "Relative affinitiy (Binding potency) vs JI-38", "setting": "[6]", "value": 27.19},
      {"measurement": "Stimulation of growth hormone levels after s.c. administration (comparison in words)", "setting": "[7]", "value": "stimulated greater growth hormone levels than hGHRH or JI-38"}
    ]}
  ]
}
